According to article PMC12202533, “Mechanistic Insights and Anti-cancer Activity of 2H-benzo[b][1,4]oxazin-3(4H)-one Linked 1,2,3-Triazoles in Human Cancer Cells” (Frontiers in Pharmacology, 2025):

How the values were obtained:
MCF-7 = assay: CCK-8 cell viability assay; assay type: cell-based; settings: Homo sapiens, MCF7, MCF-7, 40 μM, 48 h, read-out: Cell viability (100%), 40 μM, 48 h, MCF-7
Protocol: (§1) In order to investigate the anticancer activity of new synthetic 1,4-benzoxazinone-linked 1,2,3-triazole compounds, we chose several cancer cell lines, including A549 (lung), Huh7 (liver), MCF-7 (breast), HCT-116 (colon), and SKOV3 (ovary), and measured cell viability using the CCK-8 assay. Cells were exposed to 40 μM of the compounds for 48 h, and then cell viability was determined. […] In addition, we used the reference drug gefitinib as a positive control and measured its cell viability on different cell lines. […] We used BEAS-2B cells as a normal cell line to determine the toxic effects of these compounds on normal cells. […] Furthermore, we evaluated the IC50 of these compounds in A549.
(§2) Human cancer cell lines A549, Huh7, MCF-7, HCT-116, and SKOV3 were obtained from ATCC. The cells were cultured in DMEM or RPMI 1640 medium supplemented with 10% FBS and 1% penicillin/streptomycin and incubated at 37°C in a CO2-humidified atmosphere.
(§3) Cells were cultured in DMEM or RPMI 1640 medium containing 10% FBS and 1% penicillin/streptomycin at 37°C and 5% CO2. The CCK-8 assay was performed on several human cancer cell lines, including A549, Huh7, MCF-7, HCT-116, and SKOV3, according to the manufacturer’s instructions. Cells were plated at a density of 5 × 10^3 cells per well in a 96-well plate. After 24 h of incubation, cells were treated with 40 μM compounds for 48 h. Cell viability was assessed by adding 10 μL of CCK-8 reagent, dissolved in the cell culture medium, and incubating for 1 h. Absorbance was measured at 450 nm using a microplate reader. IC50 values were determined using a dose-response curve with six concentrations (0, 10, 20, 40, 80, and 160 μM), and IC50 values were calculated using GraphPad Prism software.

HCT-116 = assay: CCK-8 cell viability assay; assay type: cell-based; settings: Homo sapiens, HCT-116, 40 μM, 48 h, read-out: Cell viability (100%), 40 μM, 48 h, HCT-116
Protocol: as §1, §2, §3

Huh7 = assay: CCK-8 cell viability assay; assay type: cell-based; settings: Homo sapiens, Huh-7, Huh7, 40 μM, 48 h, read-out: Cell viability (100%), 40 μM, 48 h, Huh7
Protocol: as §1, §2, §3

SKOV3 = assay: CCK-8 cell viability assay; assay type: cell-based; settings: Homo sapiens, SK-OV-3, SKOV3, 40 μM, 48 h, read-out: Cell viability (100%), 40 μM, 48 h, SKOV3
Protocol: as §1, §2, §3

A549 cells [1] = assay: DNA damage staining (γ-H2AX antibody and DAPI); assay type: cell-based, human; settings: A549, 5, 10, and 20 μM, 24 h
Protocol: In order to further verify the effects of 2H-1,4-benzoxazin-3(4H)-one linked 1,2,3-triazole derivatives on DNA damage, A549 cells were treated with different doses (5, 10, and 20 μM) of compounds 14b and 14c. After 24-h treatment, cells were stained with γ-H2AX antibody and DAPI, cell nuclei were stained blue, and DNA-damaged cells were stained green. Using confocal microscopy, cells were observed and photographed.
A549 cells were seeded at a density of 2 × 10^3 cells per well in 96-well plates. Cells were treated with different concentrations (0, 5, 10, 20, and 30 μM) of the compounds for 24 h. DNA damage was assessed using a DNA damage detection kit. The cell nuclei were stained blue, while DNA-damaged cells were stained green. Cells were then observed and photographed using a fluorescence microscope.

A549 cells [2] = assay: Calcein AM/PI live/dead viability assay; assay type: cell-based, human; settings: 24 h
Protocol: To investigate the role of 14b and 14c in regulating cell proliferation and death, A549 cells were treated with different concentrations of compounds for 24 h, and the live/dead cell numbers were then observed by staining with calcein AM and propidium iodide.
FIGURE 4 Compound 14b and 14c increased dead cells and decreased live cells. (A–B) A549 cells were treated with different concentrations of 14b and 14c (5 μM, 10 μM, and 20 μM) for 24 h (C–D) BEAS-2B cells were treated with different concentrations of 14b and 14c (5 μM, 10 μM, and 20 μM) for 24 h. Live and dead cell numbers were stained with calcein in AM and PI, respectively, and cells were observed by confocal microscopy. Data are presented as mean ± SEM, *P < 0.05.
The live/dead viability assay was performed using the Calcein/PI Live/Dead Viability Assay Kit. A549 cells were plated at a density of 5 × 10^3 cells per well in a 96-well plate and allowed to adhere overnight. Compounds were then added at concentrations of 0, 5, 10, or 20 μM for 24 h. After replacing the medium with fresh culture medium containing Calcein AM and propidium iodide, the cells were incubated for 30 min at 37°C in the dark. Live and dead cells were observed and photographed using a confocal microscope.

A549 cells [3] = assay: RT-PCR gene expression; assay type: cell-based, human; settings: A549, 10 μM, 48 h
Protocol: To investigate the molecular mechanisms underlying the anti-tumor activity of 2H-1,4-benzoxazin-3(4H)-one-linked 1,2,3-triazole derivatives, we examined the expression of key genes involved in cell growth and death, including those related to DNA damage, oxidative stress, apoptosis, and autophagy (Figure 5). Gene expression was assessed in A549 cells treated with 14b or 14c (10 μM) for 48 h. […] The regulation of gene expression is a complex process regulated by many signaling pathways, and these signaling pathways interact with each other, all of which lead to a change in gene expression, not all in the same direction. Although the DNA damage gene p21 was decreased, another key gene, H2AX, was increased, which may stimulate DNA damage. These findings in A549 cells align with the results observed following 14b and 14c treatments.
FIGURE 5 Compounds 14b and 14c increased the gene expression. A549 cells were treated with 14b (A) and 14c (B) (10 μM) for 48 h. Gene expressions were detected by RT-PCR. Data are presented as mean ± SEM, *P < 0.05.
A549 cells were seeded in 12-well plates and treated with compounds for 48 h. Total RNA was extracted using TRIzol reagent, and RT-PCR was performed using PowerUp™ SYBR™ Green Master Mix. Gene expression was normalized to GAPDH. The results are expressed as mean ± SEM, and statistical significance was assessed using a two-tailed Student’s t-test (P < 0.05).

O=C1COc2ccc(NC(=O)c3cccc(-c4cn(-c5cccc(Br)c5)nn4)c3)cc2N1 [Compound 14b]
viability at 40 µM (MCF-7): 114 ± 1.68%
viability at 40 µM (HCT-116): 125 ± 2.78%
viability at 40 µM (Huh7): 123 ± 2.08%
viability at 40 µM (SKOV3): 98.02 ± 0.87%
DNA damage (γ-H2AX staining) (A549 cells [1]): significantly led to DNA damage in a concentration-dependent manner
Dead cells (A549 cells [2]; A549, 5 μM): increased
Dead cells (A549 cells [2]; A549, 10 μM and 20 μM): greatly and largely increased
Live cells (A549 cells [2]; A549, different concentrations (5, 10, 20 μM)): consistently decreased
ATG7 gene expression (A549 cells [3]): increased expression
Nrf2 gene expression (A549 cells [3]): increased expression
p53 gene expression (A549 cells [3]): increased expression

O=C1COc2ccc(NC(=O)c3cccc(-c4cn(-c5ccccc5F)nn4)c3)cc2N1 [Compound 14c]
viability at 40 µM (MCF-7): 110 ± 2.45%
viability at 40 µM (HCT-116): 65.3 ± 4.55%
viability at 40 µM (Huh7): 125 ± 1.53%
viability at 40 µM (SKOV3): 57.2 ± 4.16%
DNA damage (γ-H2AX staining) (A549 cells [1]): significantly led to DNA damage in a concentration-dependent manner
live/dead cell numbers compared with compound 14b (A549 cells [2]; A549, 5, 10, 20 μM): The same results were also observed
ATG7 gene expression (A549 cells [3]): upregulated
Gpx4 gene expression (A549 cells [3]): upregulated
H2AX gene expression (A549 cells [3]): upregulated
apoptosis-related genes expression (A549 cells [3]): either downregulated or unchanged
